PMC7366380, “Discovery of a Potent and Selective Covalent Inhibitor and Activity-Based Probe for the Deubiquitylating Enzyme UCHL1, with Antifibrotic Activity” (Journal of the American Chemical Society, 2020)
Where “and” joins values, the source holds several entries; their conditions need not be identical. Equal values may be shown once.

Legend:
Assay in all cases: In-cell proteome-wide competitive ABPP, HEK293: other DUBs and proteins
[1] = target: T1, DUBs and other proteins in HEK293 cells (Homo sapiens, UniProt P40818); settings: for Log2 reporter intensity values: USP8: competition with ABP 2, DMSO substract (FC), replicates A-B; for Log2 reporter intensity values: USP8, DMSO subtracted
T1 sequence (P40818 1-1118): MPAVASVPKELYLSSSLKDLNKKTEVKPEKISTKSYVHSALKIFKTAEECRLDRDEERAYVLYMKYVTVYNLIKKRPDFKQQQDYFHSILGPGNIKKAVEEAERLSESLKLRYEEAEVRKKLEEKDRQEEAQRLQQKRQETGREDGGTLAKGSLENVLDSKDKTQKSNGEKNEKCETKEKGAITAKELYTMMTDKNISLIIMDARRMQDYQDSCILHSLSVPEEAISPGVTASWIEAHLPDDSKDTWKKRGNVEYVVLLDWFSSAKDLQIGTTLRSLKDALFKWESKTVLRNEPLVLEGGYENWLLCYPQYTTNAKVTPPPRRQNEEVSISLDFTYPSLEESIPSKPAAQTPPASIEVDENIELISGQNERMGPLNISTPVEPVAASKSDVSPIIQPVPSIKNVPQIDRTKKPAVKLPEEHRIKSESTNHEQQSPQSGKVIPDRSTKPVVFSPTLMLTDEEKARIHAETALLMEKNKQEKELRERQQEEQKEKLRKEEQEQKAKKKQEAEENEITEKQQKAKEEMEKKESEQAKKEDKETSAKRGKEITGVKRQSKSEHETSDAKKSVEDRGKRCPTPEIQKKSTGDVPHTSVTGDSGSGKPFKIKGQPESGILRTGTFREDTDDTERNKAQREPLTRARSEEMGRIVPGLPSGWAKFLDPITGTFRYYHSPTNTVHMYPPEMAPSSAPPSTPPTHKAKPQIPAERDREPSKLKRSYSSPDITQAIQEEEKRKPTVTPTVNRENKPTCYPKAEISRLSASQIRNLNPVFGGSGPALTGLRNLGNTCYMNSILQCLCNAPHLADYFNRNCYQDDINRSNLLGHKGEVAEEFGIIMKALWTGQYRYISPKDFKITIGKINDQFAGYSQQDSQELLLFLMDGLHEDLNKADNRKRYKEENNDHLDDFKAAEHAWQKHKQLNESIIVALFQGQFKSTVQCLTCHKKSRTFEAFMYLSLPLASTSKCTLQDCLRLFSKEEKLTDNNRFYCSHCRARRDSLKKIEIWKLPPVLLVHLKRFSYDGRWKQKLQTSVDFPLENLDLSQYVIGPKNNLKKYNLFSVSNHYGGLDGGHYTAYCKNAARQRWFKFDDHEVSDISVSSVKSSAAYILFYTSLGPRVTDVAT

[2] = target: DUBs and other proteins in HEK293 cells (Homo sapiens, UniProt Q92905); settings: for Log2 reporter intensity values, COPS5: TMT replicates; for Log2 reporter intensity values / Log2 reporter intensity values: COPS5: replicates A-C; for Log2 reporter intensity values: COPS5: competition with ABP 2, DMSO substract (FC)
DUBs and other proteins in HEK293 cells (Homo sapiens, UniProt Q92905), sequence (Q92905 whole entry): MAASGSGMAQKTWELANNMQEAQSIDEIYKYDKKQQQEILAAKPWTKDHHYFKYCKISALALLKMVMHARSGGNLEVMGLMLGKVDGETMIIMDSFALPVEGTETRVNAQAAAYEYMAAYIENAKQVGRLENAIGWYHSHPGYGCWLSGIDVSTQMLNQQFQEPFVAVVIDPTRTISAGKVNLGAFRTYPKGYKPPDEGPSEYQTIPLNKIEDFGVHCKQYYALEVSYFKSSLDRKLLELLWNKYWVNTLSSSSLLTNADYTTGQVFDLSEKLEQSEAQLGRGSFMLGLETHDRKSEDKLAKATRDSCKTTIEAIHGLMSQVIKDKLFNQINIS

[3] = target: T2, DUBs and other proteins in HEK293 cells (Homo sapiens, UniProt Q9Y4E8); settings: replicates A-C; for Log2 reporter intensity values: USP15: competition with ABP 2, DMSO substract (FC); for Log2 reporter intensity values: USP15, DMSO subtracted
T2 sequence (Q9Y4E8 1-981): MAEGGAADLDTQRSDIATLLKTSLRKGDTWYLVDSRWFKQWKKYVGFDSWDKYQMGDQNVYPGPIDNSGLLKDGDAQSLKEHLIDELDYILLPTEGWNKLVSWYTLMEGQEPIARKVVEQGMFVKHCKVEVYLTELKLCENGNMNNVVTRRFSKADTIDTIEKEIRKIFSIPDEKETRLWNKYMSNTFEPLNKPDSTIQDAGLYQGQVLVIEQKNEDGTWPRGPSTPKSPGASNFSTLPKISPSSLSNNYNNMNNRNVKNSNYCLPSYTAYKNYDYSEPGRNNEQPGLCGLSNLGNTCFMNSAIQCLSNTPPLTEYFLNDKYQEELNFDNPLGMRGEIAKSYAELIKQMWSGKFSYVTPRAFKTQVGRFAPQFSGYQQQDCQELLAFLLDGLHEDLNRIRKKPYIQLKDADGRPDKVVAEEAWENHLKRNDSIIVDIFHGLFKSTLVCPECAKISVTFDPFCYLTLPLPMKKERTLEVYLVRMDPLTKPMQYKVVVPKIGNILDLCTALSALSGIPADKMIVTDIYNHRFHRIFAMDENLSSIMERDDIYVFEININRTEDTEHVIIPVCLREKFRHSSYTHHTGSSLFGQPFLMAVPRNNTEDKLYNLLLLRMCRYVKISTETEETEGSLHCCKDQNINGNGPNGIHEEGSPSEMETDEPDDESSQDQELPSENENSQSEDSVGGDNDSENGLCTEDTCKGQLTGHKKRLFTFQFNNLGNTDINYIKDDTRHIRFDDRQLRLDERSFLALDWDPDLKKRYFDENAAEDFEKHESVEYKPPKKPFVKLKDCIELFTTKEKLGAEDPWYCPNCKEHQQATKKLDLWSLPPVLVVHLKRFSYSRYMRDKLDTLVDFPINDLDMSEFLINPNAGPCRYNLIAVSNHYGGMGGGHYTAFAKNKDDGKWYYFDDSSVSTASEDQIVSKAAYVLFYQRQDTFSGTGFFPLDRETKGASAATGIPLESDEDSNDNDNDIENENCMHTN

[4] = target: DUBs and other proteins in HEK293 cells (Homo sapiens, UniProt Q9Y5T5); settings: replicates A-C; for Log2 reporter intensity values: USP16: competition with ABP 2, DMSO substract (FC); for Log2 reporter intensity values: USP16, DMSO subtracted
DUBs and other proteins in HEK293 cells (Homo sapiens, UniProt Q9Y5T5), sequence (Q9Y5T5 whole entry): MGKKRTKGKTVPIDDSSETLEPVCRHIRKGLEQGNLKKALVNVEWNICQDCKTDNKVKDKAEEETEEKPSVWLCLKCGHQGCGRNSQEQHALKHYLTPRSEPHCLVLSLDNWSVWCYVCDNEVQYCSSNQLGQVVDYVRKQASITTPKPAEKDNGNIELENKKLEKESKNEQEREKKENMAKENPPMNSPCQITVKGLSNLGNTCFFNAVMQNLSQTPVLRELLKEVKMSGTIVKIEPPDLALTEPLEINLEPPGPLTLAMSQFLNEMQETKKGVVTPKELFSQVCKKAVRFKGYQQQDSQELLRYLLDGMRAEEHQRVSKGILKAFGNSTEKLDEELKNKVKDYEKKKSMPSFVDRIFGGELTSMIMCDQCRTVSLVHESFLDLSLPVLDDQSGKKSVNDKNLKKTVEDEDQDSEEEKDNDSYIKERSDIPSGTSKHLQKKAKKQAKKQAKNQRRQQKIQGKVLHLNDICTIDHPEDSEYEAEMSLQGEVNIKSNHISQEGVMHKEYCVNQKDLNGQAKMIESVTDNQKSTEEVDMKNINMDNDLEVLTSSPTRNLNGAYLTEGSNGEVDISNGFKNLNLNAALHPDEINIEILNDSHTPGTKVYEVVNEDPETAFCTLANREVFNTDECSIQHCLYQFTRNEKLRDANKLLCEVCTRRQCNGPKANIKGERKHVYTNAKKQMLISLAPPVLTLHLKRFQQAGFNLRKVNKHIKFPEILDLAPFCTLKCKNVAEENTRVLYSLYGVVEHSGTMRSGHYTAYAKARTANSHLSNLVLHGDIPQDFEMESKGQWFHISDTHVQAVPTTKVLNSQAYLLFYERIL

CC(=O)O/N=C1\C(=O)N(Cc2cc(Cl)ccc2Cl)c2ccc(Cl)cc21 [LDN]
Log2 reporter intensity values: USP8 ([1]; LDN at 5 μM): 1.057 and 1.015
Log2 reporter intensity values: USP8 ([1]; LDN at 25 μM): 1.052 and 0.9465
Log2 reporter intensity values ([1]; LDN at 5 μM, replicates A-C): 0.08034 and 0.0217
Log2 reporter intensity values ([1]; LDN at 25 μM, replicates A-C): 0.07275 and -0.07932
Log2 reporter intensity values ([1]; LDN_5 μM, replicates A-B (C NaN)): 0.05482 and 0.0127
Log2 reporter intensity values ([1]; LDN_25 μM, replicates A-B (C NaN)): 0.04927 and -0.05595
Log2 reporter intensity values, COPS5 ([2]; 5 μM LDN-57444 (60 min) + 20 nM ABP 2 (10 min), All values): 0.02618 and -0.0337 and -0.04942
Log2 reporter intensity values, COPS5 ([2]; 5 μM LDN-57444 (60 min) + 20 nM ABP 2 (10 min), DMSO subtracted): 0.0843 and 0.02441 and 0.00869
Log2 reporter intensity values, COPS5 ([2]; 25 μM LDN-57444 (60 min) + 20 nM ABP 2 (10 min), All values): 0.09342 and -0.06531 and -0.07503
Log2 reporter intensity values, COPS5 ([2]; 25 μM LDN-57444 (60 min) + 20 nM ABP 2 (10 min), DMSO subtracted): 0.1515 and -0.007194 and -0.01692
Log2 t-test Difference ([2]; COPS5, LDN - 5 μM): -0.1232
Log2 reporter intensity values ([2]; COPS5, LDN at 5 μM, DMSO subtracted): 0.0843 and 0.02441 and 0.00869
Log2 reporter intensity values ([2]; COPS5, LDN at 25 μM, DMSO subtracted): 0.1515 and -0.007194 and -0.01692
Log2 reporter intensity values ([2]; COPS5, LDN_5 μM, DMSO subtracted): 0.06009 and 0.01698 and 0.005959
Log2 reporter intensity values ([2]; COPS5, LDN_25 μM, DMSO subtracted): 0.1107 and -0.005057 and -0.01174
Log2 reporter intensity values: COPS5 ([2]; LDN at 5 μM): 1.06 and 1.017 and 1.006
Log2 reporter intensity values: COPS5 ([2]; LDN at 25 μM): 1.111 and 0.995 and 0.9883
Log2 reporter intensity values: USP15 ([3]; LDN at 5 μM): 1.005 and 0.9596 and 1.069
Log2 reporter intensity values: USP15 ([3]; LDN at 25 μM): 1.047 and 0.9593 and 0.9363
Log2 reporter intensity values ([3]; LDN at 5 μM): 0.007561 and -0.05945 and 0.09653
Log2 reporter intensity values ([3]; LDN at 25 μM): 0.06615 and -0.06 and -0.09494
Log2 reporter intensity values ([3]; LDN_5 μM): 0.004993 and -0.04063 and 0.06894
Log2 reporter intensity values ([3]; LDN_25 μM): 0.04666 and -0.041 and -0.06395
Log2 reporter intensity values: USP16 ([4]; LDN at 5 μM): 1.149 and 1.181 and 1.095
Log2 reporter intensity values: USP16 ([4]; LDN at 25 μM): 1.216 and 1.053 and 1.129
Log2 reporter intensity values ([4]; LDN at 5 μM): 0.2004 and 0.2395 and 0.1308
Log2 reporter intensity values ([4]; LDN at 25 μM): 0.2823 and 0.07456 and 0.1753
Log2 reporter intensity values ([4]; LDN_5 μM): 0.1468 and 0.1784 and 0.09274
Log2 reporter intensity values ([4]; LDN_25 μM): 0.2139 and 0.05085 and 0.127
